# Test system: patients with MF
# Test: Phase 2 safety: adverse events, serious adverse events and deaths
# Format: in vivo, human
# Protocol: At screening/baseline, patients underwent a medical history, physical examination, vital sign assessment, ECOG PS assessment, electrocardiogram, and assessment of hematologic parameters and blood chemistry. Hematology/blood chemistry, physical examinations, and vital sign assessments were performed throughout treatment. Toxicity was assessed using the National Cancer Institute Common Terminology Criteria for Adverse Events (NCIC-CTCAE), version 3.0, with relationship to treatment assigned by the investigator and were recorded from the first dose of pacritinib until 30 days after the last dose. Bone marrow biopsy and/or aspirate samples were drawn at baseline, on day 1 of cycle 4 and cycle 10, as clinically indicated, and at the termination visit. Disease response and progression were determined using the relevant International Working Group (IWG) criteria.
# The efficacy-evaluable population included those patients with a baseline and corresponding follow-up value. The safety population included all enrolled patients who received ≥1 dose of pacritinib.
compound,measurement,setting,value
"C1=C/COCc2cc(ccc2OCCN2CCCC2)Nc2nccc(n2)-c2cccc(c2)COC/1 [pacritinib, 11-(2-pyrrolidin-1-yl-ethoxy)-14,19-dioxa-5,7,26-triaza-tetracyclo[19.3.1.1(2,6). 1(8,12)]heptacosa-1(25),2(26),3,5,8,10,12(27),16,21,23-decaene]",Relation of deaths to pacritinib,phase 2,None of the deaths were considered related to pacritinib
same,SAEs considered related to pacritinib,phase 2,two
same,Gastrointestinal toxicities,"phase 2, n = 31",reported by all patients
same,Grade 3/4 AE: anemia,"phase 2, n = 31",5 n
same,Grade 3/4 AE: bone pain,"phase 2, n = 31",4 n
same,Grade 3/4 AE: diarrhea,"phase 2, n = 31",5 n
same,Grade 3/4 AE: fatigue,"phase 2, n = 31",5 n
same,Grade 3 or 4 thrombocytopenia,"phase 2, n = 31",three
same,Grade 3 treatment-related AEs,"phase 2, n = 31",22.6%
same,Grade 4 treatment-related AEs,"phase 2, n = 31",No grade 4/5 treatment-related AEs were reported
same,"Leukopenia, neutropenia, lymphopenia","phase 2, n = 31","No leukopenia, neutropenia, or lymphopenia was reported"
same,Patients who discontinued pacritinib because of an AE,"phase 2, n = 31",9.7%
same,Patients with SAEs,"phase 2, n = 31",41.9%
same,Patients with at least one grade 3/4 AE,"phase 2, n = 31",71.0%
same,Patients with dose interruptions because of AEs,"phase 2, n = 31",Fourteen
same,Patients with dose reductions because of AEs,"phase 2, n = 31",14 patients
same,Treatment-related AE: diarrhea,"phase 2, n = 31",90.3%
same,Treatment-related AE: fatigue,"phase 2, n = 31",12.9%
same,Treatment-related AE: nausea,"phase 2, n = 31",48.4%
same,Treatment-related AE: vomiting,"phase 2, n = 31",29.0%
same,Treatment-emergent AE: Abdominal pain,"phase 2, n = 31, Any grade",9 (29.0) n (%)
same,Treatment-emergent AE: Anemia,"phase 2, n = 31, Any grade",6 (19.4) n (%)
same,Treatment-emergent AE: Asthenia,"phase 2, n = 31, Any grade",5 (16.1) n (%)
same,Treatment-emergent AE: Bone pain,"phase 2, n = 31, Any grade",6 (19.4) n (%)
same,Treatment-emergent AE: Cardiac murmur,"phase 2, n = 31, Any grade",4 (12.9) n (%)
same,Treatment-emergent AE: Constipation,"phase 2, n = 31, Any grade",5 (16.1) n (%)
same,Treatment-emergent AE: Diarrhea,"phase 2, n = 31, Any grade",28 (90.3) n (%)
same,Treatment-emergent AE: Dyspnea,"phase 2, n = 31, Any grade",5 (16.1) n (%)
same,Treatment-emergent AE: Edema peripheral,"phase 2, n = 31, Any grade",12 (38.7) n (%)
same,Treatment-emergent AE: Fatigue,"phase 2, n = 31, Any grade",18 (58.1) n (%)
same,Treatment-emergent AE: Hyperuricemia,"phase 2, n = 31, Any grade",4 (12.9) n (%)
same,Treatment-emergent AE: Insomnia,"phase 2, n = 31, Any grade",9 (29.0) n (%)
same,Treatment-emergent AE: Nausea,"phase 2, n = 31, Any grade",16 (51.6) n (%)
same,Treatment-emergent AE: Night sweats,"phase 2, n = 31, Any grade",7 (22.6) n (%)
same,Treatment-emergent AE: Pain in extremity,"phase 2, n = 31, Any grade",8 (25.8) n (%)
same,Treatment-emergent AE: Pruritus,"phase 2, n = 31, Any grade",9 (29.0) n (%)
same,Treatment-emergent AE: Pyrexia,"phase 2, n = 31, Any grade",4 (12.9) n (%)
same,Treatment-emergent AE: Rash,"phase 2, n = 31, Any grade",4 (12.9) n (%)
same,Treatment-emergent AE: Upper respiratory tract infection,"phase 2, n = 31, Any grade",4 (12.9) n (%)
same,Treatment-emergent AE: Vomiting,"phase 2, n = 31, Any grade",11 (35.5) n (%)
same,Treatment-emergent AE: Weight decreased,"phase 2, n = 31, Any grade",4 (12.9) n (%)
same,Treatment-emergent AE: Abdominal pain,"phase 2, n = 31, Grade 1",3 (9.7) n (%)
same,Treatment-emergent AE: Anemia,"phase 2, n = 31, Grade 1",0 n (%)
same,Treatment-emergent AE: Asthenia,"phase 2, n = 31, Grade 1",4 (12.9) n (%)
same,Treatment-emergent AE: Bone pain,"phase 2, n = 31, Grade 1",1 (3.2) n (%)
same,Treatment-emergent AE: Cardiac murmur,"phase 2, n = 31, Grade 1",0 n (%)
same,Treatment-emergent AE: Constipation,"phase 2, n = 31, Grade 1",5 (16.1) n (%)
same,Treatment-emergent AE: Diarrhea,"phase 2, n = 31, Grade 1",14 (45.2) n (%)
same,Treatment-emergent AE: Dyspnea,"phase 2, n = 31, Grade 1",4 (12.9) n (%)
same,Treatment-emergent AE: Edema peripheral,"phase 2, n = 31, Grade 1",6 (19.4) n (%)
same,Treatment-emergent AE: Fatigue,"phase 2, n = 31, Grade 1",2 (6.5) n (%)
same,Treatment-emergent AE: Hyperuricemia,"phase 2, n = 31, Grade 1",2 (6.5) n (%)
same,Treatment-emergent AE: Insomnia,"phase 2, n = 31, Grade 1",7 (22.6) n (%)
same,Treatment-emergent AE: Nausea,"phase 2, n = 31, Grade 1",9 (29.0) n (%)
same,Treatment-emergent AE: Night sweats,"phase 2, n = 31, Grade 1",4 (12.9) n (%)
same,Treatment-emergent AE: Pain in extremity,"phase 2, n = 31, Grade 1",5 (16.1) n (%)
same,Treatment-emergent AE: Pruritus,"phase 2, n = 31, Grade 1",4 (12.9) n (%)
same,Treatment-emergent AE: Pyrexia,"phase 2, n = 31, Grade 1",4 (12.9) n (%)
same,Treatment-emergent AE: Rash,"phase 2, n = 31, Grade 1",2 (6.5) n (%)
same,Treatment-emergent AE: Upper respiratory tract infection,"phase 2, n = 31, Grade 1",3 (9.7) n (%)
same,Treatment-emergent AE: Vomiting,"phase 2, n = 31, Grade 1",7 (22.6) n (%)
same,Treatment-emergent AE: Weight decreased,"phase 2, n = 31, Grade 1",4 (12.9) n (%)
same,Treatment-emergent AE: Abdominal pain,"phase 2, n = 31, Grade 2",3 (9.7) n (%)
